Results on four compounds are retold here after patent US4798833A, “Guanine derivative” (priority 1983, dated 1989).

The test system of data set [1] is HSV-1 (strain C42). Briefly: Plaque reduction assay, inhibition of HSV-1 multiplication in Vero cells. The class given is cell-based, Herpes simplex type 1 virus. As to conditions: read-out: Inhibition (%)/Conc. (μM), HSV-1 in Vero cells; for inhibition at 1 µM: Human alphaherpesvirus 1, 1 μM. (In general: Plaques are areas of infected cells; plaque reduction assays count them against a control.)

Data set [2] concerns HSV-1 (strain C42). The experiment in a line: Plaque reduction assay, inhibition of HSV-1 multiplication in HEL cells. The class given is cell-based, Herpes simplex type 1 virus. As to conditions: Human alphaherpesvirus 1, HEL (human embryonic lung) cells, read-out: HSV-1 in HEL cells ID50.
Another data set concerns VZV (several strains). The experiment in a line: Inhibition of VZV multiplication in HL cells, late antigens by ELISA. The class given is cell-based, Varicella zoster virus. The procedure: I. Inhibition of virus multiplication in cell cultures
Virol. 2 357 (1968). The effect on VZV (several strains) multiplication in HL (human lung fibroblast) cells by VSA 671 was determined by measuring the formation of late antigens by the ELISA technique as described by B. Wahren et al., J. Virological Methods 6, 141-149 (1983).
In general terms: ELISA stands for enzyme-linked immunosorbent assay.

Another data set has as its target HSV-1 thymidine kinase (Human herpesvirus 1, UniProt P0DTH5). The experiment in a line: biochemical. Conditions: for Ki: HSV-1 thymidine kinase, read-out: Inhibition constant Ki.
The next data set has as its system HSV-1 (C42). Briefly: Systemic (i.p.) HSV-1 infection in mice. The class given is in vivo. Conditions: treated animals.
The next data set relates to HSV-2 (strain 91075). Briefly: Systemic (i.p.) HSV-2 infection in mice. The class given is in vivo. Conditions: treated animals.
The nature of data set [3]: Cellular toxicity, reduction in growth of human embryonic cells. Conditions: flow 1000 cells.
In data set [4] the test system is cutaneous herpesvirus infection. The experiment in a line: Cutaneous herpesvirus infection on guinea pigs, topical treatment. In kind it is in vivo. As to the method:
Thirty μl of solution or solvent was added topically 3 times per day for 4 days starting 24 h post inoculation.

Where [5] appears, read: 25 mg/kg i.p. twice daily 5 days, untreated 90, 21 days.
Setting [6] is: 50 mg/kg i.p. twice daily 5 days, untreated 90, 21 days.

Structures are written as SMILES. Where only a bound is given, the exact number is not on record here.

In general, Ki refers to a dissociation constant, usually derived from enzyme kinetics or from competition with a known ligand.

Sequence of HSV-1 thymidine kinase (P0DTH5 whole entry): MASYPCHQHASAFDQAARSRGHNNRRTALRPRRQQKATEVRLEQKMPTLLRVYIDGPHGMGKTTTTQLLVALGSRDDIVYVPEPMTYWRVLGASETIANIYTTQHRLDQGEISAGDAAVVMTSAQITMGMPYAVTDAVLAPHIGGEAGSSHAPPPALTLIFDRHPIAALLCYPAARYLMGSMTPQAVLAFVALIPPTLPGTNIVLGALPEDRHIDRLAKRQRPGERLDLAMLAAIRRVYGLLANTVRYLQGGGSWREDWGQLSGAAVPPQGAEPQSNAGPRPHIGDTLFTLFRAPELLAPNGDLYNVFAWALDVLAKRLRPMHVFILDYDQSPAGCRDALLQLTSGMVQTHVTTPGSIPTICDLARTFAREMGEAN

Take `Nc1nc2c(ncn2CC(CO)CCO)c(=O)[nH]1` (stereo not drawn) [VSA 671, 9-[4-hydroxy-2-(hydroxymethyl)butyl]guanine]: in the data set on HSV-1 (strain C42) [1], the inhibition at 1 µM was above 90%. Also, the IC50 was 0.2 µM in the data set with HSV-1 (strain C42) [2] and 1.3 to 2.5 µM with VZV (several strains) (Human alphaherpesvirus 3, HL (human lung fibroblast) cells, several strains, late antigens by ELISA, read-out: VZV in HL cells ID50). In addition, in the data set on VZV (several strains) (in words), the “Effect against varicella zoster virus multiplication” value is recorded as “very good effect against varicella zoster virus multiplication”. The “Affinity for viral thymidine kinase (in words)” value at HSV-1 thymidine kinase is reported as “affinity close to that of the natural substrate, thymidine”. At HSV-1 thymidine kinase, the inhibitory constant (Ki) is 0.6 µM. The “Cumulative mortality (%) (treated/untreated)” value is 30% in the data set with HSV-1 (C42) (setting [5]), 30% in the data set on HSV-1 (C42) (setting [6]), 40% with HSV-2 (strain 91075) (setting [5]) and 30% in the data set on HSV-2 (strain 91075) (setting [6]). In data set [3], this compound showed an inhibition at 48 h, 200 µM of 18%.

For the compound `Nc1nc2c(ncn2C/C=C\CO)c(=O)[nH]1` [VSA 151, cis-9-(4-hydroxy-2-butenyl)guanine], in the data set with HSV-1 (strain C42) [1] (Human alphaherpesvirus 1, 10 μM), the inhibition at 10 µM is above 90%. Besides, the IC50 in the data set on HSV-1 (strain C42) [2] is 0.6 µM. The inhibitory constant (Ki) at HSV-1 thymidine kinase was determined as 7 µM. For the same compound, the inhibition at 48 h, 200 µM in data set [3] turned out to be 0%.

As to `Nc1nc2c(ncn2CC=C(CO)CO)c(=O)[nH]1` [VSA 668, 9-[4-hydroxy-3-(hydroxymethyl)-2-butenyl]guanine], the inhibition at 25 µM with HSV-1 (strain C42) [1] (Human alphaherpesvirus 1, 25 μM) is above 90%. In addition, on HSV-1 thymidine kinase, the inhibition constant (Ki) turned out to be 25 µM. For the same compound, the inhibition at 48 h, 200 µM in data set [3] is 0%.

`Nc1nc2c(ncn2CCC(CO)CO)c(=O)[nH]1` [VIS 873, 9-[4-hydroxy-3-(hydroxymethyl)butyl]guanine]: the inhibition at 1 µM in the data set on HSV-1 (strain C42) [1] was above 90%. The IC50 in the data set on HSV-1 (strain C42) [2] worked out at 0.4 µM. The Ki at HSV-1 thymidine kinase was determined as 1.5 µM. In data set [4] (2.5% in dimethylsulfoxide, 30 μl topically 3 times per day for 4 days starting 24 h post inoculation), the “Percent reduction in cumulative score as compared to placebo treatment” value was 36%. In addition, the “Therapeutic effect on cutaneous herpesvirus infections (in words)” value in data set [4] (topical) is “had a therapeutic effect on cutaneous herpesvirus infections when applied topically”. In addition, the “Cumulative mortality (%) (treated/untreated)” value with HSV-1 (C42) (5 mg/kg i.p. twice daily 5 days, untreated 80, 21 days) is listed as 30%; in the data set with HSV-1 (C42) (10 mg/kg i.p. twice daily 5 days, untreated 80, 21 days), 0%; in the data set with HSV-2 (strain 91075) (5 mg/kg i.p. twice daily 5 days, untreated 90, 21 days), 70%; in the data set with HSV-2 (strain 91075) (10 mg/kg i.p. twice daily 5 days, untreated 90, 21 days) it was 20%; in the data set with HSV-2 (strain 91075) (setting [5]), 0%; with HSV-2 (strain 91075) (50 mg/kg i.p. twice daily 5 days, untreated 100, 21 days) it was 10%. This compound returned an inhibition at 48 h, 200 µM in data set [3] of 7%.
